Measurements published in publication PMC6273584, “Synthesis of Thiazolo[5,4-f]quinazolin-9(8H)-ones as Multi-Target Directed Ligands of Ser/Thr Kinases” (Molecules, 2016).
Like-named read-outs stand apart in the source and are kept apart here.

Key:
CDK5/p25 = biological target: T1, CDK5/p25 (Homo sapiens, UniProt Q00535); experiment: In vitro kinase assay CDK5/p25, [γ-33P]ATP, histone H1 substrate; format: biochemical
T1 construct: made in house
Description: (§1) It was also tested as positive control and its IC50 values were compared to those obtained for the compounds under study.
(§2) Buffer A: MgCl2 (10 mM), 1 mM ethylene glycol-bis(2-aminoethylether)-N,N,N’,N’- tetraacetic acid (EGTA), 1 mM dithiothreitol (DTT), 25 mM Tris-HCl pH 7.5, 50 μg heparin/mL. Buffer B: β-Glycerophosphate (60 mM), 30 mM p-nitrophenylphosphate, 25 mM 3-(N-morpholino) propanesulfonic acid (Mops) (pH 7.2), 5 mM EGTA, 15 mM MgCl2, 1 mM DTT, 0.1 mM sodium vanadate.
(§3) Blank values were substracted and activities expressed in % of the maximal activity, i.e., in the absence of inhibitors. Controls were performed with appropriate dilutions of dimethylsulfoxide (DMSO). IC50 values were calculated from dose-response curves established by Sigma-Plot graphs. The GSK-3, CK1, DYRK1A and CLK1 peptide substrates were obtained from Proteogenix (Oberhausbergen, France).
(§4) CDK5/p25. (Human, recombinant) was prepared as previously described. […] ATP (3000 Ci/mmol; 10 mCi/mL) in a final volume of 30 μL. After 30 min incubation at 30 °C, 25 μL aliquots of supernatant were spotted onto sheets of P81 phosphocellulose paper (Whatman) and 20 s later, the filters were washed eight times (for at least 5 min each time) in a solution of 10 mL phosphoric acid/L of water. The wet filters were counted in the presence of 1 mL ACS (Amersham, UK) scintillation fluid.

CK1δ/ε = experiment: In vitro kinase assay CK1δ/ε, CK1-specific peptide substrate; format: biochemical, Porcine; settings: 15 μM ATP, 30 min, 30 °C, triplicate; <50% inhibition at 10 μM = IC50 >10 μM
Description: as §1, §2, §3, §4
CK1δ/ε. (Porcine brain, native) was assayed as described for CDK5/p25 but using the CK1-specific peptide substrate […]pSAYSITA [37].

DYRK1A [1] = biological target: T2, DYRK1A (Rattus norvegicus, UniProt Q63470); experiment: In vitro kinase assay DYRK1A, Woodtide substrate; format: biochemical
Description: as §1, §2, §3, §4

GSK-3α/β = experiment: In vitro kinase assay GSK-3α/β, GS-1 peptide substrate; format: biochemical, Porcine
Description: as §1, §2, §3, §4
GSK-3α/β. (Porcine brain, native) was assayed, as described for CDK5/p25 but in buffer A and using a GSK-3 specific substrate (GS-1: […]pSEDEEE) (pS stands for phosphorylated serine).

CLK1 [2] = biological target: T3, CLK1 (Homo sapiens, UniProt P49759); settings: read-out: CLK1 IC50, 15 μM ATP, 30 min, 30 °C, triplicate
T3 sequence (P49759 whole entry): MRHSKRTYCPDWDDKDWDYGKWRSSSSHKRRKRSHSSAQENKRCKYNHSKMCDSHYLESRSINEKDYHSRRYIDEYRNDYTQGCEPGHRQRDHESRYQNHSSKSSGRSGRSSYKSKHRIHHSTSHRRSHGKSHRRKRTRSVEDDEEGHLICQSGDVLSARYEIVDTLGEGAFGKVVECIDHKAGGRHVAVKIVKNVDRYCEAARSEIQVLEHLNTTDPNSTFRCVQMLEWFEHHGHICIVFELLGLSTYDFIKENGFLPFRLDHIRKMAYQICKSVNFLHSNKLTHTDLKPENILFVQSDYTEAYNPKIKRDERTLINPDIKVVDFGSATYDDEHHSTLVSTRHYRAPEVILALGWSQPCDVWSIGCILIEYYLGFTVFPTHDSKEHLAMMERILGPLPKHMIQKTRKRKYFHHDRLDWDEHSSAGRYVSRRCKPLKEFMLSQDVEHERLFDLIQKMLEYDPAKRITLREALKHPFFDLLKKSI

DYRK1A [3] = biological target: T2, DYRK1A; experiment: DYRK1A inhibition of earlier compounds I and II (Figure 2); format: biochemical; settings: list of targeted kinases extended for earlier compounds
CDK1 = test system: CDK1; design: method as in PMID 17981370, PMID 16644220; settings: Figure 2; earlier work; cited from earlier work
CLK1 [4] = biological target: T3, CLK1; experiment: biochemical
[5] = 15 μM ATP, 30 min, 30 °C, triplicate, <50% inhibition at 10 μM = IC50 >10 μM
[6] = 15 μM ATP, 30 min, 30 °C, triplicate, <50% inhibition at 10 μM = IC50 >10 μM, read-out: DYRK1A IC50

T1 sequence (Q00535 whole entry): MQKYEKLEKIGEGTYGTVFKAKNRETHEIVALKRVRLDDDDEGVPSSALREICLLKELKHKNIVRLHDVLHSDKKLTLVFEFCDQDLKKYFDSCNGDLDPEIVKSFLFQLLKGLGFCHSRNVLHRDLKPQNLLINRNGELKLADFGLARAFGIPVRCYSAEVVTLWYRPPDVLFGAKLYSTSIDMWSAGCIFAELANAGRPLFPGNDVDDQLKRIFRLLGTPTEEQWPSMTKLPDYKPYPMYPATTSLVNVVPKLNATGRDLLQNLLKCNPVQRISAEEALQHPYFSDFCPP
T1 sequence (Q15078 99-307 partner limits assumed): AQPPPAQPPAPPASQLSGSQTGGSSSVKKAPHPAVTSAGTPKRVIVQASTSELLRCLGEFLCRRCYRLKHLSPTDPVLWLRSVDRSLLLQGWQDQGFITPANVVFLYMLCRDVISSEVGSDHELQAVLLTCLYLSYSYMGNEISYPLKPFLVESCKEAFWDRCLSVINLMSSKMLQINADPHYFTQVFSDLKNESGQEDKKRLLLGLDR

Row | DYRK1A IC50 (DYRK1A [3]) | IC50 (DYRK1A [3]) [nM] | IC50 (CDK5/p25) [nM] | IC50 (CLK1 [4]) [nM] | IC50 (DYRK1A [1]; read-out: DYRK1A IC50) [nM] | SMILES | IC50 (CDK5/p25; [5]) [nM] | IC50 (CK1δ/ε) [nM] | IC50 (DYRK1A [1]; [6]) [nM] | IC50 (GSK-3α/β) [nM] | IC50 (CLK1 [2]) [nM] | CDK1 IC50 (CDK1) | IC50 (CDK1) [nM] | IC50 (DYRK1A [1]) [nM]
1 |  |  |  |  |  | COCCn1cnc2ccc3nc(C(=N)OC)sc3c2c1=O [Compound 12b, Methyl 8-(2-methoxyethyl)-9-oxo-8,9-dihydrothiazolo[5,4-f]quinazoline-2-carbimidate] | > 10000 | > 10000 | 390 | 1200 | 510 |  |  | 
2 | micromolar | 1500 |  |  |  | CCn1cnc2ccc3nc(C(=N)OCc4ccccc4)sc3c2c1=O [II] |  |  |  |  |  | micromolar range | 1300 | 
3 |  |  |  |  |  | COC(=N)c1nc2ccc3ncn(CCN(C)C)c(=O)c3c2s1 [Compound 12i, Methyl 8-[(3-dimethylamino)ethyl]-9-oxo-8,9-dihydrothiazolo[5,4-f]quinazoline-2-carbimidate] | > 10000 | > 10000 | 1000 | 1800 | 1800 |  |  | 
4 |  |  |  |  |  | CC(C)n1cnc2ccc3nc(C(=N)OCc4ccccc4)sc3c2c1=O [Compound 13d, Benzyl 8-isopropyl-9-oxo-8,9-dihydro[1, 3]thiazolo[5,4-f]quinazoline-2-carbimidate] | > 10000 | > 10000 |  | 57 | 270 |  |  | 
5 |  |  |  |  |  | COCCn1cnc2ccc3nc(C(=N)OC(C)C)sc3c2c1=O [Compound 15b, Isopropyl 8-(2-methoxyethyl)-9-oxo-8,9-dihydro[1, 3]thiazolo[5,4-f]quinazoline-2-carboximidate] | > 10000 | > 10000 | 3900 | 2500 | 2100 |  |  | 
6 |  |  | 1800 | 380 |  | COC(=N)c1nc2ccc3ncn(C4CCCCC4)c(=O)c3c2s1 [Compound 12g, Methyl 8-cyclohexyl-9-oxo-8,9-dihydrothiazolo[5,4-f]quinazoline-2-carbimidate] |  | > 10000 |  | 30 |  |  |  | 170
7 |  |  | 3900 | 31 | 91 | COC(=N)c1nc2ccc3ncn(C4CC4)c(=O)c3c2s1 [Compound 12a, Methyl 8-cyclopropyl-9-oxo-8,9-dihydrothiazolo[5,4-f]quinazoline-2-carbimidate] |  | > 10000 |  | 82 |  |  |  | 
8 |  |  |  |  |  | COCCCn1cnc2ccc3nc(C(=N)OC(C)C)sc3c2c1=O [Compound 15c, Isopropyl 8-(3-methoxypropyl)-9-oxo-8,9-dihydro[1, 3]thiazolo[5,4-f]quinazoline-2-carboximidate] | > 10000 | > 10000 | 950 | 270 | 1200 |  |  | 

Row | SMILES | DYRK1A IC50 (DYRK1A [3]) | IC50 (DYRK1A [3]) [nM] | IC50 (CDK5/p25) [nM] | IC50 (CLK1 [4]) [nM] | IC50 (DYRK1A [1]; read-out: DYRK1A IC50) [nM] | IC50 (CDK5/p25; [5]) [nM] | IC50 (CK1δ/ε) [nM] | IC50 (DYRK1A [1]; [6]) [nM] | IC50 (GSK-3α/β) [nM] | IC50 (CLK1 [2]) [nM] | CDK1 IC50 (CDK1) | IC50 (CDK1) [nM] | IC50 (DYRK1A [1]) [nM]
9 | COC(=N)c1nc2ccc3ncn(C4CCCC4)c(=O)c3c2s1 [Compound 12e, Methyl 8-cyclopentyl-9-oxo-8,9-dihydrothiazolo[5,4-f]quinazoline-2-carbimidate] |  |  | 4900 | 290 |  |  | > 10000 |  | 28 |  |  |  | 72
